These results are taken from patent US10131652B2, “Pyrimidinyloxy benzene derivatives as herbicides” (E. I. DU PONT DE NEMOURS AND COMPANY, priority 2014, dated 2018).

What all share (format): in vivo
Experiment [1] relates to galium (catchweed bedstraw, Galium aparine). The experiment in a line: Test B postemergence plant response. In outline:
(§1)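 Pots, loam soil + sand; postemergence treatment at 1–2 leaf stage, 2–10 cm; greenhouse ~10 d; visual injury score 0 (none) to 100 (complete control) relative to untreated controls.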

Experiment [2] deals with blackgrass (Alopecurus myosuroides). The experiment in a line: Test B postemergence plant response. In outline: as §1
Experiment [3] has as its system kochia (Kochia scoparia). The experiment in a line: Test B pre-/postemergence plant response. Summed up:
(§2)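 Scoring used a 0–100 scale (100 = complete control) by visual comparison with untreated plants after approximately 10 days in the greenhouse. Compounds, in surfactant-containing non-phytotoxic solvent, were sprayed onto soil at planting or onto 2–10 cm seedlings.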

Experiment [4] concerns ragweed (common ragweed, Ambrosia elatior). The experiment in a line: Test B pre-/postemergence plant response. In outline: as §2
For experiment [5], the system named is Italian ryegrass (Lolium multiflorum). The experiment in a line: Test B pre-/postemergence plant response. In outline:
as §2

[6] abbreviates: 125 g ai/ha, postemergence, 0 to 100 scale, 0 no effect, 100 complete control.
Where [7] appears, read: Postemergence, 31 g ai/ha, 0 to 100 scale (0 no effect, 100 complete control).
The mark [8] stands for this setting: 31 g ai/ha, Preemergence, 0 to 100 scale where 0 is no effect and 100 is complete control.
[9] abbreviates: Preemergence, 125 g ai/ha, 0 to 100 scale (0 no effect, 100 complete control).
Setting [10] is: 31 g ai/ha, Postemergence, 0 to 100 scale, 0 no effect, 100 complete control.
Where [11] appears, read: Preemergence, 31 g ai/ha, 0 to 100 scale (0 no effect, 100 complete control).
[12] abbreviates: Preemergence, 125 g ai/ha, 0 to 100 scale where 0 is no effect and 100 is complete control.
[13] abbreviates: Postemergence, 1000 g ai/ha, 0 to 100 scale (0 no effect, 100 complete control).
The mark [14] stands for this setting: Preemergence, 1000 g ai/ha, 0 to 100 scale (0 no effect, 100 complete control).
The mark [15] stands for this setting: Postemergence, 500 g ai/ha, 0 to 100 scale (0 no effect, 100 complete control).
The mark [16] stands for this setting: Preemergence, 500 g ai/ha, 0 to 100 scale where 0 is no effect and 100 is complete control.

For `FC(Cl)(Cl)c1cc(-c2ccccc2Oc2ncc(Cl)cn2)no1` [Compound 198], the “Plant response rating, Galium” value in experiment [1] (setting [6]) and in experiment [1] (setting [7]) was 100 each time. Besides, the “Plant response rating, Blackgrass” value in experiment [2] (setting [6]) stood at 40; in experiment [2] (setting [7]), 10. Also, the “Plant response rating, Kochia” value in experiment [3] (setting [8]) is on record as 0; in experiment [3] (setting [6]), 80; in experiment [3] (setting [7]), 80. For the same compound, the “Kochia plant response rating” value in experiment [3] (setting [9]) was 30. The “Plant response rating, Ragweed” value in experiment [4] (setting [8]) is 0; in experiment [4] (setting [6]), 20; in experiment [4] (setting [7]), 10. Besides, the “Ragweed plant response rating” value in experiment [4] (setting [9]) came out at 10. For the same compound, the results for the “Plant response rating, Ryegrass, Italian” value in experiment [5] (setting [8]), in experiment [5] (setting [6]) and in experiment [5] (setting [7]) were 0, 50 and 10, respectively. In addition, in experiment [5] (setting [9]), the “Ryegrass, Italian plant response rating” value was determined as 20.
With `CC(F)(F)c1cc(-c2ccccc2Oc2ncc(Cl)cn2)no1` [Compound 220], the “Plant response rating, Galium” value in experiment [1] (setting [6]) was 100; in experiment [1] (setting [7]), 90. The “Plant response rating, Blackgrass” value is given as 90 in experiment [2] (setting [6]) and 60 in experiment [2] (setting [7]). Further, the “Plant response rating, Kochia” value is 50 in experiment [3] (setting [8]), 100 in experiment [3] (setting [6]) and 90 in experiment [3] (setting [7]). In addition, in experiment [3] (setting [9]), the “Kochia plant response rating” value is listed as 90. In addition, the “Plant response rating, Ragweed” value worked out at 0 in experiment [4] (setting [8]), 10 in experiment [4] (setting [6]) and 0 in experiment [4] (setting [7]). Besides, in experiment [4] (setting [9]), the “Ragweed plant response rating” value is listed as 10. Further, the “Plant response rating, Ryegrass, Italian” value in experiment [5] (setting [8]) is recorded as 0; in experiment [5] (setting [6]), 40; in experiment [5] (setting [7]), 0. In experiment [5] (setting [9]), the “Ryegrass, Italian plant response rating” value is on record as 30.
In the case of `CC(F)(F)c1cc(-c2ccccc2Oc2ncc(Cl)cn2)on1` [Compound 178], the figures for the “Plant response rating, Galium” value in experiment [1] (setting [6]) and in experiment [1] (setting [7]) were 100 and 80, respectively. Besides, the “Plant response rating, Blackgrass” value was 40 in experiment [2] (setting [6]) and 10 in experiment [2] (setting [7]). In addition, the “Plant response rating, Kochia” value in experiment [3] (setting [8]) worked out at 10; in experiment [3] (setting [6]), 100; in experiment [3] (setting [7]), 80. Further, in experiment [3] (setting [9]), the “Kochia plant response rating” value amounted to 20. The “Plant response rating, Ragweed” value worked out at 0 in experiment [4] (setting [8]), 10 in experiment [4] (setting [6]) and 10 in experiment [4] (setting [7]). Besides, the “Ragweed plant response rating” value in experiment [4] (setting [9]) worked out at 0. Further, the “Plant response rating, Ryegrass, Italian” value worked out at 0 in experiment [5] (setting [8]), 30 in experiment [5] (setting [6]) and 0 in experiment [5] (setting [7]). The “Ryegrass, Italian plant response rating” value in experiment [5] (setting [9]) was found to be 10.
With `Cc1cc(-c2c(F)cccc2Oc2ncc(Br)cn2)on1` [Compound 230], the entries for the “Plant response rating, Galium” value in experiment [1] (setting [6]) and in experiment [1] (setting [7]) were 100 and 80, respectively. In addition, the “Plant response rating, Blackgrass” value was 70 in experiment [2] (setting [6]) and 20 in experiment [2] (setting [7]). Moreover, the “Plant response rating, Kochia” value in experiment [3] (setting [8]) came to 60; in experiment [3] (setting [6]), 100; in experiment [3] (setting [7]), 80. The “Kochia plant response rating” value in experiment [3] (setting [9]) is on record as 100. Moreover, the “Plant response rating, Ragweed” value is 20 in experiment [4] (setting [8]), 100 in experiment [4] (setting [6]) and 70 in experiment [4] (setting [7]). In experiment [4] (setting [9]), the “Ragweed plant response rating” value is 80. Also, the “Plant response rating, Ryegrass, Italian” value in experiment [5] (setting [8]), in experiment [5] (setting [6]) and in experiment [5] (setting [7]) was 0 each time. The “Ryegrass, Italian plant response rating” value in experiment [5] (setting [9]) is 0.
As for `COc1cccc(Oc2ncc(Cl)cn2)c1-c1cc(C(F)(F)F)no1` [Compound 104], the “Plant response rating, Galium” value in experiment [1] (setting [10]) was found to be 90; in experiment [1] (setting [6]), 100. The results for the “Plant response rating, Blackgrass” value in experiment [2] (setting [10]) and in experiment [2] (setting [6]) were 70 and 100, respectively. Also, the “Plant response rating, Kochia” value turned out to be 50 in experiment [3] (setting [10]), 80 in experiment [3] (setting [6]) and 10 in experiment [3] (setting [12]). Moreover, in experiment [3] (setting [11]), the “Kochia plant response rating” value stood at 0. The figures for the “Plant response rating, Ragweed” value in experiment [4] (setting [10]), in experiment [4] (setting [6]) and in experiment [4] (setting [12]) were 10, 10 and 0, respectively. Also, the “Ragweed plant response rating” value in experiment [4] (setting [11]) was found to be 0. In addition, the results for the “Plant response rating, Ryegrass, Italian” value in experiment [5] (setting [10]), in experiment [5] (setting [6]) and in experiment [5] (setting [12]) were 0, 30 and 10, respectively. For the same compound, in experiment [5] (setting [11]), the “Ryegrass, Italian plant response rating” value came out at 0.
For the compound `Clc1cnc(Oc2ccccc2-c2cc(Cl)sn2)nc1` [Compound 192], in experiment [1] (setting [13]), the “Plant response rating, Galium” value was found to be 100. The “Plant response rating, Blackgrass” value in experiment [2] (setting [13]) came out at 90. Further, the “Plant response rating, Kochia” value in experiment [3] (setting [13]) and in experiment [3] (setting [14]) was 100 in each case. In addition, the “Plant response rating, Ragweed” value in experiment [4] (setting [13]) is recorded as 60; in experiment [4] (setting [14]), 20. Moreover, the “Plant response rating, Ryegrass, Italian” value in experiment [5] (setting [13]) and in experiment [5] (setting [14]) was 50 each time.
For `N#Cc1cccc(Oc2ncc(Cl)cn2)c1-c1cc(C(F)(F)F)ccn1` [Compound 158, 5-chloro-2-[3-cyano-2-[4-(trifluoromethyl)-2-pyridinyl]phenoxy]pyrimidine], the “Plant response rating, Galium” value in experiment [1] (setting [6]) stood at 30; in experiment [1] (setting [15]) it was 100. The “Plant response rating, Blackgrass” value was 30 in experiment [2] (setting [6]) and 90 in experiment [2] (setting [15]). In addition, the “Plant response rating, Kochia” value in experiment [3] (setting [6]) was determined as 70; in experiment [3] (setting [15]), 90; in experiment [3] (setting [16]), 100. Moreover, the “Kochia plant response rating” value in experiment [3] (setting [9]) turned out to be 100. Besides, the entries for the “Plant response rating, Ragweed” value in experiment [4] (setting [6]), in experiment [4] (setting [15]) and in experiment [4] (setting [16]) were 0, 30 and 20, respectively. For the same compound, the “Ragweed plant response rating” value in experiment [4] (setting [9]) stood at 0. Also, the results for the “Plant response rating, Ryegrass, Italian” value in experiment [5] (setting [6]), in experiment [5] (setting [15]) and in experiment [5] (setting [16]) were 0, 70 and 20, respectively. In addition, in experiment [5] (setting [9]), the “Ryegrass, Italian plant response rating” value was determined as 0.
With `FCc1cc(-c2ccccc2Oc2ncc(Cl)cn2)on1` [Compound 224], the “Plant response rating, Galium” value is on record as 100 in experiment [1] (setting [6]) and 80 in experiment [1] (setting [7]). The “Plant response rating, Blackgrass” value in experiment [2] (setting [6]) worked out at 70; in experiment [2] (setting [7]), 40. The “Plant response rating, Kochia” value was determined as 60 in experiment [3] (setting [8]), 100 in experiment [3] (setting [6]) and 70 in experiment [3] (setting [7]). Further, the “Kochia plant response rating” value in experiment [3] (setting [9]) came to 90. The figures for the “Plant response rating, Ragweed” value in experiment [4] (setting [6]) and in experiment [4] (setting [7]) were 100 and 50, respectively. The “Plant response rating, Ryegrass, Italian” value in experiment [5] (setting [8]), in experiment [5] (setting [6]) and in experiment [5] (setting [7]) was 0 throughout. The “Ryegrass, Italian plant response rating” value in experiment [5] (setting [9]) turned out to be 0.
Consider `Cn1nnc(-c2ccccc2Oc2ncc(Br)cn2)n1` [Compound 50], for which the figures for the “Plant response rating, Galium” value in experiment [1] (setting [6]) and in experiment [1] (setting [15]) were 90 and 100, respectively. Besides, the figures for the “Plant response rating, Blackgrass” value in experiment [2] (setting [6]) and in experiment [2] (setting [15]) were 40 and 60, respectively. Also, the “Plant response rating, Kochia” value is on record as 60 in experiment [3] (setting [6]), 80 in experiment [3] (setting [15]), 10 in experiment [3] (setting [12]) and 60 in experiment [3] (setting [16]). Besides, the “Plant response rating, Ragweed” value in experiment [4] (setting [6]) is 20; in experiment [4] (setting [15]), 60; in experiment [4] (setting [12]), 0; in experiment [4] (setting [16]), 50. Moreover, the “Plant response rating, Ryegrass, Italian” value in experiment [5] (setting [6]) is recorded as 0; in experiment [5] (setting [15]), 50; in experiment [5] (setting [12]) it was 20; in experiment [5] (setting [16]) it was 50.
As for `FC(F)(F)c1cc(-c2c(Cl)cccc2Oc2ncc(Cl)cn2)no1` [Compound 169], the “Plant response rating, Galium” value in experiment [1] (setting [6]) and in experiment [1] (setting [15]) was 100 throughout. Also, the “Plant response rating, Blackgrass” value is 50 in experiment [2] (setting [6]) and 90 in experiment [2] (setting [15]). Further, the “Plant response rating, Kochia” value in experiment [3] (setting [6]), in experiment [3] (setting [15]) and in experiment [3] (setting [16]) was 90 each time. For the same compound, the “Kochia plant response rating” value in experiment [3] (setting [9]) amounted to 70. The “Plant response rating, Ragweed” value is 20 in experiment [4] (setting [6]), 30 in experiment [4] (setting [15]) and 20 in experiment [4] (setting [16]). The “Ragweed plant response rating” value in experiment [4] (setting [9]) is reported as 10. Moreover, the “Plant response rating, Ryegrass, Italian” value was determined as 20 in experiment [5] (setting [6]), 50 in experiment [5] (setting [15]) and 20 in experiment [5] (setting [16]). Also, in experiment [5] (setting [9]), the “Ryegrass, Italian plant response rating” value is reported as 0.
